Measured values taken from patent US10045990B2, “ERBB4 inhibitors and methods of use thereof” (Arizona Board of Regents on behalf of Arizona State …, priority 2015, dated 2018).
Like-named read-outs stand apart in the source and are kept apart here.

Experiments:
KLE = assay: cell growth / viable cell count in ERBB4-overexpressing, BTK-negative cell line; assay type: cell-based, human; parameters: % Survival: dose or concentration left out as unconfirmed
H716 = assay: as above; assay type: cell-based, human
BTK [1] = molecular target: T1, BTK (Homo sapiens, UniProt Q06187); conditions: 1 uM, radioactive ATP (FIG. 3A)
Method: First, radioactive kinase assays were performed with purified protein kinases incubated with radioactive ATP and increasing concentrations of kinase inhibitors. The kinase activity was measured through the levels of radioactive phosphorylation present in each kinase.

H146 = assay: cell growth / viable cell count in ERBB4-overexpressing, BTK-negative cell line; assay type: cell-based, human
Abl1 = Abl1 (Homo sapiens, UniProt P00519); conditions: DMSO = 100
Method: (§1) Protein microarrays were generated using NAPPA (Nucleic acid programmable protein array) methodology, which permits the use of freshly expressed proteins for functional assays (FIG. 1). In NAPPA, cDNAs coding for the target of interest are cloned into an expression vector, which generates a fusion (Halo Tag, GST, etc.) to the target, and spotted onto a glass slide. Then to each spot, a HeLa cell in vitro transcription-translation reagent is added, whereby the fusion gene is transcribed into mRNA and translated. The nascent proteins are captured to the slide with antibody to the fusion partner (i.e., HaloTag-ligand, α-GST antibody) that is spotted adjacent to the DNA during the manufacture of the array. This method allows for up to thousands of protein targets to be arrayed. NAPPA microarrays can be expressed using an in vitro transcription and translation system (IVTT), and the anti-tag antibody captures newly synthesized proteins. Following expression, the microarrays were treated with phosphatase to remove any phosphorylation that occurred during the expression of the proteins.
(§2) De-phosphorylated arrays were then incubated with kinase buffer containing various concentrations of ATP and/or kinase inhibitors. The kinase activity was measured as end point assay using anti-phopho tyrosine antibody linked to cy3 as the detecting agent (FIG. 2). The data was normalized using positive control features present in each array.
(§3) NAPPA kinase microarrays we generated with virtually all protein-tyrosine kinases from the human genome. The coding sequence for each tyrosine kinase was clone into an expression plasmid and immobilized on the microarray surface, with one protein kinase per feature. After the microarray was expressed, any phosphorylation that occurred during the expression step was removed by a treatment with lambda phosphatase.
(§4) Unphosphorylated microarrays were then incubated with a kinase buffer (25 mM Tris-HCl (pH 7.5), 5 mM beta-glycerophosphate, 2 mM dithiothreitol (DTT), 0.1 mM Na3VO4, 10 mM MgCl2) supplemented with […] and/or kinase inhibitors (concentration ranging from 0-10 uM). The kinase autophosphorylation activity was measured through the levels of phosphorylation present in each feature and was detected by phospho-tyrosine antibody. […] Staurosporine is a pan kinase inhibitor used as a control.
(§5) NAPPA arrays suitable for measuring the activity of protein kinases and evaluating the selectivity of kinase inhibitors were produced using a variation of the published protocol (Proteomics Clin Appl. 2013 June; 7(5-6):372-7.). Briefly, NAPPA printing mix was prepared with plasmid DNA coding for genes of interest, anti-flag antibody, cross-linker and poly-lysine. […]

BTK [2] = molecular target: T1, BTK; conditions: DMSO = 100
Method: as §1, §2, §3, §4, §5

BCRABL = assay: NAPPA array kinase autophosphorylation assay; assay type: biochemical, human; conditions: DMSO = 100
TESK2 = molecular target: T2, TESK2 (Homo sapiens, UniProt Q96S53); assay: NAPPA array kinase autophosphorylation assay; assay type: biochemical; conditions: DMSO = 100
T2 construct: made in house; host or cells: human cell-free coupled transcription-translation (1-Step Human Coupled IVT), on the slide
Method: as §1, §2, §3, §4
(§6) NAPPA arrays suitable for measuring the activity of protein kinases and evaluating the selectivity of kinase inhibitors were produced using a variation of the published protocol (Proteomics Clin Appl. 2013 June; 7(5-6):372-7.). Briefly, NAPPA printing mix was prepared with plasmid DNA coding for genes of interest, anti-flag antibody, cross-linker and poly-lysine. Samples were agitated for 90 minutes at 1200 rpm at RT and printed in quadruplicate in aminopropyltriethoxysilane coated glass slides.
(§7) Arrays were stored in an airtight container at room temperature until use.

ERBB4/HER4 = molecular target: T3, ERBB4/HER4 (Homo sapiens, UniProt Q15303); assay: NAPPA array kinase autophosphorylation assay; assay type: biochemical; conditions: DMSO = 100
T3 construct: made in house; host or cells: human cell-free coupled transcription-translation (1-Step Human Coupled IVT), on the slide
Method: as §1, §2, §3, §4, §6, §7

Tec = molecular target: T4, Tec (Homo sapiens, UniProt P42680); assay: NAPPA array kinase autophosphorylation assay; assay type: biochemical; conditions: DMSO = 100
T4 construct: made in house; host or cells: human cell-free coupled transcription-translation (1-Step Human Coupled IVT), on the slide
Method: as §1, §2, §3, §4, §6, §7

EPHA1 = molecular target: T5, EPHA1 (Homo sapiens, UniProt P21709); assay: NAPPA array kinase autophosphorylation assay; assay type: biochemical; conditions: DMSO = 100
T5 construct: made in house; host or cells: human cell-free coupled transcription-translation (1-Step Human Coupled IVT), on the slide
Method: as §1, §2, §3, §4, §6, §7

ERBB3/HER3 = molecular target: T6, ERBB3/HER3 (Homo sapiens, UniProt P21860); assay: NAPPA array kinase autophosphorylation assay; assay type: biochemical; conditions: DMSO = 100
T6 construct: made in house; host or cells: human cell-free coupled transcription-translation (1-Step Human Coupled IVT), on the slide
Method: as §1, §2, §3, §4, §6, §7

EGFR/ERBB1 = molecular target: T7, EGFR/ERBB1 (Homo sapiens, UniProt P00533); assay: NAPPA array kinase autophosphorylation assay; assay type: biochemical; conditions: DMSO = 100
T7 construct: made in house; host or cells: human cell-free coupled transcription-translation (1-Step Human Coupled IVT), on the slide
Method: as §1, §2, §3, §4, §6, §7

DYRK2 = molecular target: T8, DYRK2 (Homo sapiens, UniProt Q92630); assay: NAPPA array kinase autophosphorylation assay; assay type: biochemical; conditions: DMSO = 100
T8 construct: made in house; host or cells: human cell-free coupled transcription-translation (1-Step Human Coupled IVT), on the slide
Method: as §1, §2, §3, §4, §6, §7

TNK2 = molecular target: T9, TNK2 (Homo sapiens, UniProt Q07912); assay: NAPPA array kinase autophosphorylation assay; assay type: biochemical; conditions: DMSO = 100
T9 construct: made in house; host or cells: human cell-free coupled transcription-translation (1-Step Human Coupled IVT), on the slide
Method: as §1, §2, §3, §4, §6, §7

SYK = SYK (Homo sapiens, UniProt P43405); assay: NAPPA array kinase autophosphorylation assay; assay type: biochemical; conditions: DMSO = 100
Method: as §1, §2, §3, §4, §6, §7

[3] = 0, 1 nM, 10 nM, 100 nM, 1 uM or 10 uM for 7 days
[4] = 1 uM, 7 days, Trypan blue exclusion, vs DMSO

T1 sequence (Q06187 whole entry): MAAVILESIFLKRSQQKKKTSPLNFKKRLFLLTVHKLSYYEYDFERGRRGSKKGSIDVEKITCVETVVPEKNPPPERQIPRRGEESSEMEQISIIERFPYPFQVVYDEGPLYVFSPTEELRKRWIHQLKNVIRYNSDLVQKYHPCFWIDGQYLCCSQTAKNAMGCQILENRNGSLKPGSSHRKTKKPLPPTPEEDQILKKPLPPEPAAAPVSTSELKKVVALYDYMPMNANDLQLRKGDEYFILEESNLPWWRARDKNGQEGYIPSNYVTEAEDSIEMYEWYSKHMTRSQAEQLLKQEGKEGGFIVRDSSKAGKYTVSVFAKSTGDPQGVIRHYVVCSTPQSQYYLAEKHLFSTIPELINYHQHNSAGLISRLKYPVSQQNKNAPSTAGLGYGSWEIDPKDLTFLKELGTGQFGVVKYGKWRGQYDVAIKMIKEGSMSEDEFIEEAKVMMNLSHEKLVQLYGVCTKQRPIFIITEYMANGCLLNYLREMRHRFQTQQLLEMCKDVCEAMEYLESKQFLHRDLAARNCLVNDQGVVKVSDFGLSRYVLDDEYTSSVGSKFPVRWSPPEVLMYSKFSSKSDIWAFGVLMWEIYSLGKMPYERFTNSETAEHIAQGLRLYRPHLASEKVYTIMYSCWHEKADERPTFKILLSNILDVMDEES
T6 sequence (P21860 20-1342): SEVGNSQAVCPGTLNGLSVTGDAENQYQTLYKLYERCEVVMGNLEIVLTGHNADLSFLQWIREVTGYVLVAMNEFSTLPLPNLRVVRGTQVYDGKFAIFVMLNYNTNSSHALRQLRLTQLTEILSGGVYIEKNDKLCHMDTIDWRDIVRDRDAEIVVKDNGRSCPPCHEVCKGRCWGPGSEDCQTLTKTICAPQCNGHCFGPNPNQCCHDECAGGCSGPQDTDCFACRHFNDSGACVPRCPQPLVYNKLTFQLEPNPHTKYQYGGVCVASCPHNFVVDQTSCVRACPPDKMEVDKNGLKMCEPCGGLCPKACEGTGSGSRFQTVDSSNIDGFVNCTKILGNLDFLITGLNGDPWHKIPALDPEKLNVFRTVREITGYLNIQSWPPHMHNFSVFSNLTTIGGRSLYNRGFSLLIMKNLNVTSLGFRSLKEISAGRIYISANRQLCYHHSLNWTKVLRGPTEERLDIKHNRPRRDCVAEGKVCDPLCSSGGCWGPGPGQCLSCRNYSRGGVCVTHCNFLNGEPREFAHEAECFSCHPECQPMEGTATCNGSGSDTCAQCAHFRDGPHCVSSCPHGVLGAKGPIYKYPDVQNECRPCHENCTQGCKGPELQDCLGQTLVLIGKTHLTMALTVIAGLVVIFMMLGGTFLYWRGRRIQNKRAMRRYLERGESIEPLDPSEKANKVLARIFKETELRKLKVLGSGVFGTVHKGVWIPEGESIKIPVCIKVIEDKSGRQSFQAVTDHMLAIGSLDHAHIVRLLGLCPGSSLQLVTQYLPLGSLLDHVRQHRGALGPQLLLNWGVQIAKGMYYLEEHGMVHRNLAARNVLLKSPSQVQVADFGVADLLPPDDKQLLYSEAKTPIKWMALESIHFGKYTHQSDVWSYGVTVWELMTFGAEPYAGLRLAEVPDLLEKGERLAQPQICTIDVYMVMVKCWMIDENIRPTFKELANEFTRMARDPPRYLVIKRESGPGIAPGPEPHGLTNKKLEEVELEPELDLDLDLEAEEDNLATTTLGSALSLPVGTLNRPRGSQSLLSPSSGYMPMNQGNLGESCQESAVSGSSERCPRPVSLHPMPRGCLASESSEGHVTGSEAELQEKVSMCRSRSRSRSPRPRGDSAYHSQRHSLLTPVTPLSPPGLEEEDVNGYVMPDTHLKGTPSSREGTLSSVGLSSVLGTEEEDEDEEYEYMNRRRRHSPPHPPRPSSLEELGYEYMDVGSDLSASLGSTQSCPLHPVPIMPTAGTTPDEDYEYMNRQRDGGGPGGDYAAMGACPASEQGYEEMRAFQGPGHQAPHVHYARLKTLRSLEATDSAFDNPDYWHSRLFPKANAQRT
T9 sequence (Q07912 whole entry): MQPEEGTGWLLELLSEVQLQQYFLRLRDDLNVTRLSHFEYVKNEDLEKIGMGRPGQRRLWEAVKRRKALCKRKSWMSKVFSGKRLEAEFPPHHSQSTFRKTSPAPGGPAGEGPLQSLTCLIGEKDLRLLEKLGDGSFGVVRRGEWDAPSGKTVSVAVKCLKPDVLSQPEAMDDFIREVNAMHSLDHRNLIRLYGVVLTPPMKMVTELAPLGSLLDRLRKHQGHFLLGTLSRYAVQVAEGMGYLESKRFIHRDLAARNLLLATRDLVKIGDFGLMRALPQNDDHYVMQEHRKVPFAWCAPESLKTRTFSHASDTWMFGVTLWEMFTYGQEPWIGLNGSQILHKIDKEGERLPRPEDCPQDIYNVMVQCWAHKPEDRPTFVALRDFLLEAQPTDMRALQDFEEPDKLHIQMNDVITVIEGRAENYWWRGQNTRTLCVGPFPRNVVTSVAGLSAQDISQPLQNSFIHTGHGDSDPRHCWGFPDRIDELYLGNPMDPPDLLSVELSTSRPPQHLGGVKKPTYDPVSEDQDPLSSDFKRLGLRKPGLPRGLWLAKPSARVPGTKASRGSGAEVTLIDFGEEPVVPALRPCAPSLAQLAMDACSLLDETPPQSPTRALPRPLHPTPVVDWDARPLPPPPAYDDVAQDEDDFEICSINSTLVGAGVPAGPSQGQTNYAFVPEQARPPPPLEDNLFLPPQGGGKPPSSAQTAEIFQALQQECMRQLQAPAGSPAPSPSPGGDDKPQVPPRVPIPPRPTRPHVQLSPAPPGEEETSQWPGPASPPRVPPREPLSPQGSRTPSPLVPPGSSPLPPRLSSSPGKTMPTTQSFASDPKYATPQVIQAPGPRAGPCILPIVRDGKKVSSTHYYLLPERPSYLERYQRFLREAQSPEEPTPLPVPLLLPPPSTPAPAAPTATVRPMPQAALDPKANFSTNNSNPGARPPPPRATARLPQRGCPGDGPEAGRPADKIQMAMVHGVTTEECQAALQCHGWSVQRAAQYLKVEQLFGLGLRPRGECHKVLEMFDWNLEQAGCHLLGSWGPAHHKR
T2 sequence (Q96S53 whole entry): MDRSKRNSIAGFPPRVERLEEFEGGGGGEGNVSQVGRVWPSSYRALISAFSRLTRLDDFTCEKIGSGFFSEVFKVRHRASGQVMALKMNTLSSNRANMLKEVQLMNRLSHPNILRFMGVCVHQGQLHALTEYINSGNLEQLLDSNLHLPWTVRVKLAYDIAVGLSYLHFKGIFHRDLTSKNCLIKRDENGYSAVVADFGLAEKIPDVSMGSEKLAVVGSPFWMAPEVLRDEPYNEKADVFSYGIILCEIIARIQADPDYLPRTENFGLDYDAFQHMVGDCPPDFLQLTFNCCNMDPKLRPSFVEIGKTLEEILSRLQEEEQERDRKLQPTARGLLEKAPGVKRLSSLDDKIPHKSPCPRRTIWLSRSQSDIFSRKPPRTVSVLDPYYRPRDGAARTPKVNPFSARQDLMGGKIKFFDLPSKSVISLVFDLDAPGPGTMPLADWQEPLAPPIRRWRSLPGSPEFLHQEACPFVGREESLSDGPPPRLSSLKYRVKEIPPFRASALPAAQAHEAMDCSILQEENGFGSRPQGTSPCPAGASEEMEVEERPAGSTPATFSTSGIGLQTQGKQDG
T4 sequence (P42680 whole entry): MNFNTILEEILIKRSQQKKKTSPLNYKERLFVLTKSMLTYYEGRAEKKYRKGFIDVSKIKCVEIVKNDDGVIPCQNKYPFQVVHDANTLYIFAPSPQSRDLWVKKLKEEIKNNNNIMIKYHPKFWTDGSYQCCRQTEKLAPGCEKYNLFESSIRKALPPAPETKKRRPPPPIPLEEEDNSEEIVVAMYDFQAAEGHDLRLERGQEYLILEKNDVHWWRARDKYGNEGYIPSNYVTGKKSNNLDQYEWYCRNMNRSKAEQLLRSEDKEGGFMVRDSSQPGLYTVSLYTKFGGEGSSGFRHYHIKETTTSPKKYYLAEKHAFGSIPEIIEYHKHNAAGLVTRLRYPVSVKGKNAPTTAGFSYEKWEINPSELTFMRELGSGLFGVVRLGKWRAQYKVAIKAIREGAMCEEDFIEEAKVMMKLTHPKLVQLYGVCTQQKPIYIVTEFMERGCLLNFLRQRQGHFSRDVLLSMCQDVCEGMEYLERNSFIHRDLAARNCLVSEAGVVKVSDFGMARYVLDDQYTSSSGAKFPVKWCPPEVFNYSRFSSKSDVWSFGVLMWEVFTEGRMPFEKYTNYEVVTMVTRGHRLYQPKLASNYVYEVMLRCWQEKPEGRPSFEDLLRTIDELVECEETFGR
BCRABL, sequence (P00519 229-512 limits assumed): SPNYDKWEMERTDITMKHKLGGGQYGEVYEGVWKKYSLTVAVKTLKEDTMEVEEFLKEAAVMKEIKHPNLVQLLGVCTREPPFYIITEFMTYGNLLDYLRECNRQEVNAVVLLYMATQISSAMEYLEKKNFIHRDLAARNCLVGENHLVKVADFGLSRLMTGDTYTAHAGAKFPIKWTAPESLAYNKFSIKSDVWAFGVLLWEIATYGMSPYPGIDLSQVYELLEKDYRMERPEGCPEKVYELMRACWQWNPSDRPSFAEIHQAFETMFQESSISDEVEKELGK

Ibrutinib
sensitivity of cell line (KLE; [3]): very sensitive | growth inhibition rate (KLE; [4]): 73% | % Survival (KLE; percentage of viable cells after ibrutinib): 27.2% | sensitivity of cell line (H716; [3]): very sensitive | growth inhibition rate (H716; [4]): 75% | % Survival (H716; percentage of viable cells after a 24-hour treatment of 1 nM ibrutinib): 25.5% | activity inhibited (BTK [1]): more than 80% | growth inhibition rate (H146; H146, 1 uM, 7 days, Trypan blue exclusion, vs DMSO): 0% | % Survival (H146; H146, percentage of viable cells after a 24-hour treatment of 1 nM ibrutinib): 100.0% | sensitivity of cell line (H146; H416, 0, 1 nM, 10 nM, 100 nM, 1 uM or 10 uM for 7 days): apparently resistant | kinase activity (%) (Abl1; 0.1 uM Ibrutinib): 101.5% | kinase activity (%) (Abl1; 1 uM Ibrutinib): 104.3% | kinase activity (%) (BTK [2]; 0.1 uM Ibrutinib): 38.3% | kinase activity (%) (BTK [2]; 1 uM Ibrutinib): 5.5% | kinase activity (%) (BCRABL; 0.1 uM Ibrutinib): 92.0% | kinase activity (%) (BCRABL; 1 uM Ibrutinib): 93.1% | kinase activity (%) (TESK2; 0.1 uM Ibrutinib): 85.8% | kinase activity (%) (TESK2; 1 uM Ibrutinib): 83.5% | kinase activity (%) (ERBB4/HER4; 0.1 uM Ibrutinib): 67.1% | kinase activity (%) (ERBB4/HER4; 1 uM Ibrutinib): 44.1% | kinase activity (%) (Tec; 0.1 uM Ibrutinib): 68.7% | kinase activity (%) (Tec; 1 uM Ibrutinib): 62.0% | kinase activity (%) (EPHA1; 0.1 uM Ibrutinib): 87.2% | kinase activity (%) (EPHA1; 1 uM Ibrutinib): 99.1% | kinase activity (%) (ERBB3/HER3; 0.1 uM Ibrutinib): 100.0% | kinase activity (%) (ERBB3/HER3; 1 uM Ibrutinib): 206.1% | kinase activity (%) (EGFR/ERBB1; 0.1 uM Ibrutinib): 81.2% | kinase activity (%) (EGFR/ERBB1; 1 uM Ibrutinib): 89.7% | kinase activity (%) (DYRK2; 0.1 uM Ibrutinib): 97.3% | kinase activity (%) (DYRK2; 1 uM Ibrutinib): 82.3% | kinase activity (%) (TNK2; 0.1 uM Ibrutinib): 99.9% | kinase activity (%) (TNK2; 1 uM Ibrutinib): 86.9% | kinase activity (%) (SYK; 0.1 uM Ibrutinib): 90.5% | kinase activity (%) (SYK; 1 uM Ibrutinib): 109.7%
